Measured values reported in patent US20090036450A1, “PYRAZOLE COMPOUNDS AND USE THEREOF” (JAPAN TOBACCO, INC., priority 2006, published 2009).

Target: T1, human liver glycogen phosphorylase (Homo sapiens, UniProt P06737)
T1 construct: made in house; host or cells: Sf9 insect cells (suspension of disrupted cells, diluted in BES buffer, not purified)
T1 sequence (P06737 1-847): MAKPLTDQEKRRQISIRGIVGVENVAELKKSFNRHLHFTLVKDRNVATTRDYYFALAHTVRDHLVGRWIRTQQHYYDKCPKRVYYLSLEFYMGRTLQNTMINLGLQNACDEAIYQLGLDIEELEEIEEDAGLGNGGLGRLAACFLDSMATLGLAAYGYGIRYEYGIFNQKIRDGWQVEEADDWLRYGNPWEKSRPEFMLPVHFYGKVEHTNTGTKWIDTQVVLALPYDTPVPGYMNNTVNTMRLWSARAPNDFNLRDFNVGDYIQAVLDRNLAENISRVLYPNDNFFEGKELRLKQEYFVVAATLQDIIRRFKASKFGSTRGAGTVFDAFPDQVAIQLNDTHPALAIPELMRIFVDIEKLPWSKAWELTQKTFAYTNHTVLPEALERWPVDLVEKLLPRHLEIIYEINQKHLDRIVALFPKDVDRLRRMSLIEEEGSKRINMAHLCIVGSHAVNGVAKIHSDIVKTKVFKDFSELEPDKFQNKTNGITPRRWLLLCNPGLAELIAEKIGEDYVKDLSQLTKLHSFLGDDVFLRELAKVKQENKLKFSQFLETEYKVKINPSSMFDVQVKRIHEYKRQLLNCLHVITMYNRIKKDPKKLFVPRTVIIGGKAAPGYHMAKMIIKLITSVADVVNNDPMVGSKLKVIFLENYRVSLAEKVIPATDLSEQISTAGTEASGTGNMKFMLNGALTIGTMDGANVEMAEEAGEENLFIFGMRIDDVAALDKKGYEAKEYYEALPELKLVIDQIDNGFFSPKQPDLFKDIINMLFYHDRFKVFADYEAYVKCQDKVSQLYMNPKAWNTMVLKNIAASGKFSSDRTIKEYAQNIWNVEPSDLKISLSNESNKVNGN
Test: Liver glycogen phosphorylase activity, forward reaction system (NADPH detection at 340 nm)
Type: biochemical
Settings: enzyme inhibitory activity against recombinant human liver glycogen phosphorylase (Sf9 cell lysate), room temperature, 75 minutes
Description: The glycogen phosphorylase activity was determined by a method using a forward reaction system.
The following method was used to determine the glycogen phosphorylase activity using a forward reaction system. Glucose-1-phosphate generated from glycogen by glycogen phosphorylase was converted to glucono-δ-lactone-6-phosphate by transphosphorylation and dehydrogenation reactions using phosphoglucomutase and glucose-6-phosphate dehydrogenase (G6PDH). At this time, NADPH generated from NADP in the dehydrogenation reaction by G6PDH was detected.
An enzyme solution of human liver glycogen phosphorylase was obtained by diluting with 100 mmol/L BES buffer (pH 6.8, containing 2 mmol/L EDTA) a suspension disrupted Sf9 cells in which a recombinant human liver glycogen phosphorylase was forcibly expressed. Phosphate buffer (16 mmol/L KH2PO4, containing 24 mmol/L Na2HPO4) was used as a substrate solution. A mixture of 8 U/mL phosphoglucomutase and 60 U/mL G6PDH was prepared with BES buffer. A reaction buffer (1.4 mmol/L NADP, 30 mmol/L MgCl2, 8 μmol/L glucose-1,6-diphosphate, 8 mg/mL glycogen, 40 mmol/L BES, containing 0.8 mmol/L EDTA) and a glucose solution (75 mmol/L glucose and 100 mmol/L BES, containing 2 mmol/L EDTA) were prepared. A test substance was dissolved in 1% DMSO aqueous solution.
To a mixture of the glucose solution (20 μL), the substrate solution (20 μL), the reaction buffer (100 μL), and the test substance (20 μL), the recombinant human liver glycogen phosphorylase solution (20 μL), and a mixture (20 μL) of phosphoglucomutase and G6PDH were added to initiate an enzymatic reaction. To a control, 1% DMSO aqueous solution was added instead of the test substance. A solution to which the substrate was not added was used as a blank. After initiation of the reaction, absorbance at 340 nm was measured immediately. The reaction was performed at room temperature for 75 minutes, and then absorbance at 340 nm was measured again. The enzyme activity was obtained by deducting the change in absorbance of the blank for 75 minutes from the change in absorbance over 75 minutes. The inhibition rate (%) of the test substance was calculated by “(1−(enzyme activity of test substance)/(enzyme activity of control))×100”.
“IC50” represents an enzyme inhibitory activity against human liver glycogen phosphorylase.

SMILES | IC50
CSCCc1oc(C)nc1CNC(=O)c1cc(NC(=O)c2cc(F)c(F)cc2Cl)[nH]n1 [Example 1-24, 5-(2-chloro-4,5-difluoro-benzoylamino)-1H-pyrazole-3-carboxylic acid [2-methyl-5-(2-methylsulfanyl-ethyl)-oxazol-4-ylmethyl]-amide] | < 100 nM
Cc1nc(-c2ccc(F)cc2)c(CNC(=O)c2cc(NC(=O)c3cc(F)c(F)cc3Cl)[nH]n2)o1 [Example 1-25, 5-(2-chloro-4,5-difluoro-benzoylamino)-1H-pyrazole-3-carboxylic acid [4-(4-fluoro-phenyl)-2-methyl-oxazol-5-ylmethyl]-amide] | < 100 nM
Cc1nc(-c2cccc(F)c2)c(CNC(=O)c2cc(NC(=O)c3cc(F)c(F)cc3Cl)[nH]n2)o1 [Example 1-26, 5-(2-chloro-4,5-difluoro-benzoylamino)-1H-pyrazole-3-carboxylic acid [4-(3-fluoro-phenyl)-2-methyl-oxazol-5-ylmethyl]-amide] | < 100 nM
Cc1nc(-c2ccccc2F)c(CNC(=O)c2cc(NC(=O)c3cc(F)c(F)cc3Cl)[nH]n2)o1 [Example 1-27, 5-(2-chloro-4,5-difluoro-benzoylamino)-1H-pyrazole-3-carboxylic acid [4-(2-fluoro-phenyl)-2-methyl-oxazol-5-ylmethyl]-amide] | < 100 nM
Cc1nc(-c2ccc(Cl)cc2)c(CNC(=O)c2cc(NC(=O)c3cc(F)c(F)cc3Cl)[nH]n2)o1 [Example 1-28, 5-(2-chloro-4,5-difluoro-benzoylamino)-1H-pyrazole-3-carboxylic acid [4-(4-chloro-phenyl)-2-methyl-oxazol-5-ylmethyl]-amide] | < 100 nM
Cc1ccc(-c2nc(C)oc2CNC(=O)c2cc(NC(=O)c3cc(F)c(F)cc3Cl)[nH]n2)cc1 [Example 1-29, 5-(2-chloro-4,5-difluoro-benzoylamino)-1H-pyrazole-3-carboxylic acid [4-(4-methyl-phenyl)-2-methyl-oxazol-5-ylmethyl]-amide] | < 100 nM
Cc1cccc(-c2nc(C)oc2CNC(=O)c2cc(NC(=O)c3cc(F)c(F)cc3Cl)[nH]n2)c1 [Example 1-30, 5-(2-chloro-4,5-difluoro-benzoylamino)-1H-pyrazole-3-carboxylic acid [4-(3-methyl-phenyl)-2-methyl-oxazol-5-ylmethyl]-amide] | < 100 nM
COc1cccc(-c2nc(C)oc2CNC(=O)c2cc(NC(=O)c3cc(F)c(F)cc3Cl)[nH]n2)c1 [Example 1-31, 5-(2-chloro-4,5-difluoro-benzoylamino)-1H-pyrazole-3-carboxylic acid [4-(3-methoxy-phenyl)-2-methyl-oxazol-5-ylmethyl]-amide] | < 100 nM
Cc1nc(-c2ccc(-c3ccccc3)cc2)c(CNC(=O)c2cc(NC(=O)c3cc(F)c(F)cc3Cl)[nH]n2)o1 [Example 1-32, 5-(2-chloro-4,5-difluoro-benzoylamino)-1H-pyrazole-3-carboxylic acid (4-biphenyl-4-yl-2-methyl-oxazol-5-ylmethyl)-amide] | < 100 nM
Cc1nc(CCc2ccccc2)c(CNC(=O)c2cc(NC(=O)c3cc(F)c(F)cc3Cl)[nH]n2)o1 [Example 1-33, 5-(2-chloro-4,5-difluoro-benzoylamino)-1H-pyrazole-3-carboxylic acid (2-methyl-4-phenethyl-oxazol-5-ylmethyl)-amide] | < 100 nM
CCOC(=O)c1nc(C)oc1CNC(=O)c1cc(NC(=O)c2cc(F)c(F)cc2Cl)[nH]n1 [Example 1-34, 5-(2-chloro-4,5-difluoro-benzoylamino)-1H-pyrazole-3-carboxylic acid (4-ethoxycarbonyl-2-methyl-oxazol-5-ylmethyl)-amide] | < 100 nM
Cc1nc(CO)c(CNC(=O)c2cc(NC(=O)c3cc(F)c(F)cc3Cl)[nH]n2)o1 [Example 1-35, 5-(2-chloro-4,5-difluoro-benzoylamino)-1H-pyrazole-3-carboxylic acid (4-hydroxymethyl-2-methyl-oxazol-5-ylmethyl)-amide] | < 100 nM
Cc1nc(Cc2ccccc2)c(CNC(=O)c2cc(NC(=O)c3cc(F)c(F)cc3Cl)[nH]n2)o1 [Example 1-36, 5-(2-chloro-4,5-difluoro-benzoylamino)-1H-pyrazole-3-carboxylic acid (4-benzyl-2-methyl-oxazol-5-ylmethyl)-amide p-toluenesulfonate] | < 100 nM
Cc1nc(C2CC2)c(CNC(=O)c2cc(NC(=O)c3cc(F)c(F)cc3Cl)[nH]n2)o1 [Example 1-37, 5-(2-chloro-4,5-difluoro-benzoylamino)-1H-pyrazole-3-carboxylic acid (4-cyclopropyl-2-methyl-oxazol-5-ylmethyl)-amide] | < 100 nM
Cc1nc(C2CCCCC2)c(CNC(=O)c2cc(NC(=O)c3cc(F)c(F)cc3Cl)[nH]n2)o1 [Example 1-38, 5-(2-chloro-4,5-difluoro-benzoylamino)-1H-pyrazole-3-carboxylic acid (4-cyclohexyl-2-methyl-oxazol-5-ylmethyl)-amide] | < 100 nM
Cc1nc(C2CC2)oc1CNC(=O)c1cc(NC(=O)c2cc(F)c(F)cc2Cl)[nH]n1 [Example 1-39, 5-(2-chloro-4,5-difluoro-benzoylamino)-1H-pyrazole-3-carboxylic acid (2-cyclopropyl-4-methyl-oxazol-5-ylmethyl)-amide] | < 100 nM
Cc1nc(C2CCCCC2)oc1CNC(=O)c1cc(NC(=O)c2cc(F)c(F)cc2Cl)[nH]n1 [Example 1-40, 5-(2-chloro-4,5-difluoro-benzoylamino)-1H-pyrazole-3-carboxylic acid (2-cyclohexyl-4-methyl-oxazol-5-ylmethyl)-amide] | < 100 nM
Cc1nc(Cc2ccccc2)oc1CNC(=O)c1cc(NC(=O)c2cc(F)c(F)cc2Cl)[nH]n1 [Example 1-41, 5-(2-chloro-4,5-difluoro-benzoylamino)-1H-pyrazole-3-carboxylic acid (2-benzyl-4-methyl-oxazol-5-ylmethyl)-amide] | < 100 nM
Cc1nc(CCc2ccccc2)oc1CNC(=O)c1cc(NC(=O)c2cc(F)c(F)cc2Cl)[nH]n1 [Example 1-42, 5-(2-chloro-4,5-difluoro-benzoylamino)-1H-pyrazole-3-carboxylic acid (4-methyl-2-phenethyl-oxazol-5-ylmethyl)-amide] | < 100 nM
Cc1nc(COC(c2ccccc2)(c2ccccc2)c2ccccc2)oc1CNC(=O)c1cc(NC(=O)c2cc(F)c(F)cc2Cl)[nH]n1 [Example 1-43, 5-(2-chloro-4,5-difluoro-benzoylamino)-1H-pyrazole-3-carboxylic acid (4-methyl-2-trityloxymethyl-oxazol-5-ylmethyl)-amide] | > 300 nM
Cc1nc(COc2ccccc2)oc1CNC(=O)c1cc(NC(=O)c2cc(F)c(F)cc2Cl)[nH]n1 [Example 1-44, 5-(2-chloro-4,5-difluoro-benzoylamino)-1H-pyrazole-3-carboxylic acid (4-methyl-2-phenoxymethyl-oxazol-5-ylmethyl)-amide] | < 100 nM
COCc1nc(C)c(CNC(=O)c2cc(NC(=O)c3cc(F)c(F)cc3Cl)[nH]n2)o1 [Example 1-45, 5-(2-chloro-4,5-difluoro-benzoylamino)-1H-pyrazole-3-carboxylic acid (2-methoxymethyl-4-methyl-oxazol-5-ylmethyl)-amide] | < 100 nM
Cc1nc(COCC(F)(F)F)oc1CNC(=O)c1cc(NC(=O)c2cc(F)c(F)cc2Cl)[nH]n1 [Example 1-46] | < 100 nM
